System: pentylenetetrazole-induced epilepsy
Experiment: Pentylenetetrazole-induced epilepsy model mice
Type: in vivo, C57BL/6 mice
Settings: I-BRD9 10, 15, 20 mg/kg i.p. or s.c. 1 h before 45 mg/kg pentylenetetrazole i.p., compared with epilepsy model group
From the text: In the present disclosure, the animals are all 8-week-old healthy male C57BL/6 mice, weighing 22-24 grams, all purchased from Hunan SJD laboratory animal Co. LTD., license number: SCXK (Xiang) 2016-0002. C57BL/6 mice in different groups were all feed in an artificial day and night 12-hour circular lighting environment (7:00 AM-7:00 PM). The mice in the groups and were kept in cages, 4-6 mice per cage. In the cages, the mice had free access to food and water; and the daily food and water were changed regularly
Animals in each group were administered with corresponding dosage of drugs or vehicle by intraperitoneal or subcutaneous injection. 1 h later, 45 mg/kg of pentylenetetrazole was intraperitoneally injected. The behaviors and conditions of the animals were observed. Later, changes of mice behaviors were closely observed through video monitoring system for 1 h, and seizure level was evaluated by Racine grading standard. The incubation period (started after the completion the administration of pentylenetetrazole, and ended by the first time muscle spasm occurred), seizure level (subjected to the highest level) and duration period of the seizure were recorded.
Seizure level of mice were referred to a modified Racine scale:
I stage: rhythmical mouth, ears and facial twitch and spasm;
II stage: nodding and more serious facial twitch and spasm;
III stage: clonus of forelimb occurs, without up-right;
IV stage: rearing with forelimb clonus;
V stage: stiffness clonus occurs in the whole body, and falling.

Compound: CCn1cc(-c2cccc(C(F)(F)F)c2)c2sc(C(=N)NC3CCS(=O)(=O)CC3)cc2c1=O [I-BRD9]
- seizure level (modified Racine scale) (FIG. 1): obviously reduced seizure level
- epilepsy susceptibility (FIG. 2): reduced epilepsy susceptibility
- incubation period (onset time of epilepsy) (FIG. 3): postpone the onset time of epilepsy

Reference: patent publication US11304935B2 (UNIVERSITY OF SOUTH CHINA, priority 2018, dated 2022)
